Experimental findings from patent US20230322771A1, “HETEROCYCLIC GLP-1 AGONISTS” (Gasherbrum Bio, Inc., priority 2020, published 2023) are described below.

Where two headings read alike, the source gives them in different places.

This assay concerns the target GLP-1 Receptor (Homo sapiens, UniProt P43220). Briefly: GLP-1R agonist cAMP stimulation assay (HEK293/GLP1R/CRE-LUC cells, HTRF cAMP dynamic 2 kit). Format: cell-based. The conditions noted are these: HEK293/CRE-Luc cell line (HDB) stably expressing GLP-1 Receptor, 30 min incubation at 37° C. Here is the method: Activation of GLP-1 receptor is known to stimulate cyclic AMP (cAMP) production in cells which indicates primary coupling to the Gαs subunit of the G protein heterotrimeric complex.
To optimize functional activity directed toward Gαs coupling, a HEK293/CRE-Luc cell line developed by HDB stably expressing the GLP-1 Receptor was used. 200× concentration of compound working solutions were prepared (Agilent Technologies Bravo) with ½ log serial dilution in 384-well Echo LDV plate (Labcyte, Cat #LP-0200). 50 nL/well 200× concentration of compound working solutions were moved to 384-well white low volume plate (Greiner, Cat #784075) using Labcyte ECHO550. 1×10^5 cells/mL HEK293/GLP1R/CRE-LUC(HD Biosciences) cell suspensions prepared with assay buffer[DPBS containing 0.5 mM IBMX(Sigma, Cat #15879) and 0.1% BSA(GENVIEW, Cat #FA016-100 g)], 10 uL cell suspensions were added to each well of previous generated assay plate which already contains 50 nl compound at 200× concentration using ThermoFisher Multidrop Combi(1000 cells/well). Seal the plate and incubate at 37° C. with 5% CO2 for 30 min.
After incubation the cAMP assay signal was generated using cAMP dynamic 2 Kit (Cisbio). 5 μL cAMP-d2 working solution was added to each well, followed with 5 μL Anti-cAMP antibody-cryptate working solution added to each well using ThermoFisher Multidrop Combi. Incubate at room temperature for 1 hour protected from light. Read the fluorescence at 665 and 615 nm with Reader PerkinElmer EnVision.
% Activity=100%×(mean RLU of test sample−mean RLU of vehicle control)/(mean RLU of MAX control−mean RLU of vehicle control))
For orientation: In TR-FRET formats the signal depends on donor and acceptor labels being close together.

Setting [1] is: read-out: GLP1R cAMP Stimulation DR: EC50 (nM) [Species: Human, Assay Cell Line: HDB].

GLP-1 Receptor, sequence (P43220 24-463): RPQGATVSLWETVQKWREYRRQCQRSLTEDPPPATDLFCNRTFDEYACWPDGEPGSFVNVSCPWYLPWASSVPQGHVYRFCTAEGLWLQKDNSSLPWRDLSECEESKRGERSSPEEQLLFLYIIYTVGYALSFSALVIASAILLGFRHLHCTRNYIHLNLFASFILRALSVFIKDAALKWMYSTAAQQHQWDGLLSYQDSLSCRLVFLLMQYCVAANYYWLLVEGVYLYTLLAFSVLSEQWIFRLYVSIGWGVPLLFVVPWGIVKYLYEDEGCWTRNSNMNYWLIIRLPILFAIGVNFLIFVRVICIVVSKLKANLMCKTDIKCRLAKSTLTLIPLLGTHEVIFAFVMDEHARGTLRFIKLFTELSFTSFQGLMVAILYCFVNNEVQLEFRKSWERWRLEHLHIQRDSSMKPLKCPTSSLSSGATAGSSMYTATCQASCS

In the case of `Cc1cc(-n2nc3c(c2-n2ccn(-c4ccc(CS(C)(=O)=O)cc4)c2=O)[C@H](C)N(C(=O)c2cc4cc(C5CCOCC5)ccc4n2[C@@]2(c4noc(=O)[nH]4)C[C@@H]2C)CC3)cc(C)c1F` [Compound 101a, 3-((1S,2S)-1-(2-((S)-2-(4-fluoro-3,5-dimethylphenyl)-4-methyl-3-(3-(4-((methylsulfonyl)methyl)phenyl)-2-oxo-2,3-dihydro-1H-imidazol-1-yl)-4,5,6,7-tetrahydro-2H-pyrazolo[4,3-c]pyridine-5-carbonyl)-5-(tetrahydro-2H-pyran-4-yl)-1H-indol-1-yl)-2-methylcyclopropyl)-1,2,4-oxadiazol-5(4H)-one], the EC50 (read-out: GLP1R cAMP Stimulation DR: pEC50 (M) [Species: Human, Assay Cell Line: HDB] (converted)) is 3.16e-11 M.
Turning to `Cc1cc(-n2nc3c(c2-n2ccn(-c4cccc(CS(C)(=O)=O)c4)c2=O)[C@H](C)N(C(=O)c2cc4cc(C5CCOCC5)ccc4n2[C@@]2(c4noc(=O)[nH]4)C[C@@H]2C)CC3)cc(C)c1F` [Compound 102a, 3-((1S,2S)-1-(2-((S)-2-(4-fluoro-3,5-dimethylphenyl)-4-methyl-3-(3-(3-((methylsulfonyl)methyl)phenyl)-2-oxo-2,3-dihydro-1H-imidazol-1-yl)-4,5,6,7-tetrahydro-2H-pyrazolo[4,3-c]pyridine-5-carbonyl)-5-(tetrahydro-2H-pyran-4-yl)-1H-indol-1-yl)-2-methylcyclopropyl)-1,2,4-oxadiazol-5(4H)-one], the EC50 under setting [1] is 2.7e-10 M.
On to `CCS(=O)(=O)Cc1ccc(-n2ccn(-c3c4c(nn3-c3cc(C)c(F)c(C)c3)CCN(C(=O)c3cc5cc(C6CCOCC6)ccc5n3[C@@]3(c5noc(=O)[nH]5)C[C@@H]3C)[C@H]4C)c2=O)cc1` [Compound 103a, 3-((1S,2S)-1-(2-((S)-3-(3-(4-((ethylsulfonyl)methyl)phenyl)-2-oxo-2,3-dihydro-1H-imidazol-1-yl)-2-(4-fluoro-3,5-dimethylphenyl)-4-methyl-4,5,6,7-tetrahydro-2H-pyrazolo[4,3-c]pyridine-5-carbonyl)-5-(tetrahydro-2H-pyran-4-yl)-1H-indol-1-yl)-2-methylcyclopropyl)-1,2,4-oxadiazol-5(4H)-one], for which the EC50 under setting [1] was found to be 6.5e-11 M.
For the compound `CNS(=O)(=O)c1ccc(-n2ccn(-c3c4c(nn3-c3cc(C)c(F)c(C)c3)CCN(C(=O)c3cc5cc(C6CCOCC6)ccc5n3[C@@]3(c5noc(=O)[nH]5)C[C@@H]3C)[C@H]4C)c2=O)cc1` [Compound 104a, 4-(3-((S)-2-(4-fluoro-3,5-dimethylphenyl)-4-methyl-5-(1-((1S,2S)-2-methyl-1-(5-oxo-4,5-dihydro-1,2,4-oxadiazol-3-yl)cyclopropyl)-5-(tetrahydro-2H-pyran-4-yl)-1H-indole-2-carbonyl)-4,5,6,7-tetrahydro-2H-pyrazolo[4,3-c]pyridin-3-yl)-2-oxo-2,3-dihydro-1H-imidazol-1-yl)-N-methylbenzenesulfonamide], the EC50 under setting [1] turned out to be 8.1e-11 M.
For `Cc1cc(-n2nc3c(c2-n2ccn(-c4ccc(NS(C)(=O)=O)cc4)c2=O)[C@H](C)N(C(=O)c2cc4cc(C5CCOCC5)ccc4n2[C@@]2(c4noc(=O)[nH]4)C[C@@H]2C)CC3)cc(C)c1F` [Compound 105a, N-(4-(3-((S)-2-(4-fluoro-3,5-dimethylphenyl)-4-methyl-5-(1-((1S,2S)-2-methyl-1-(5-oxo-4,5-dihydro-1,2,4-oxadiazol-3-yl)cyclopropyl)-5-(tetrahydro-2H-pyran-4-yl)-1H-indole-2-carbonyl)-4,5,6,7-tetrahydro-2H-pyrazolo[4,3-c]pyridin-3-yl)-2-oxo-2,3-dihydro-1H-imidazol-1-yl)phenyl)methanesulfonamide], the EC50 under setting [1] amounted to 3.6e-11 M.
